This is an account of results in ChEMBL document CHEMBL3046290, “Metabolic effects of benzylidene thiazolidinedione derivatives in high-fat fed mice” (Med Chem Res, 2012).

The subject of series [1] is Mus musculus. In words: Toxicity in high-fat fed Mus musculus Swiss albino (mouse) assessed as change in body weight at 30 mg/kg, po qd for 15 days (reference value: 39.9 +/- 1.3 g). The class given is organism-based. The arrangement: dose 30 mg/kg, route oral. To be noted: in vivo, 360 h.
The test system of series [2] is Mus musculus. Description: Antihyperglycemic activity in high-fat fed Mus musculus Swiss albino (mouse) assessed as reduction of insulin resistance index at 30 mg/kg, po qd for 15 days. The class given is functional. Set-up: scale not given: the % may be the effect or the level left.
Series [3] deals with Mus musculus. Description: Antihyperglycemic activity in high-fat fed Mus musculus Swiss albino (mouse) assessed as reduction of fasting serum insulin level at 30 mg/kg, po qd for 15 days. The class given is functional. Set-up: scale not given: the % may be the effect or the level left.
The subject of series [4] is Mus musculus. In words: Antihyperglycemic activity in high-fat fed Mus musculus Swiss albino (mouse) assessed as reduction of fasting serum glucose level at 30 mg/kg, po qd for 15 days. In kind it is functional. Set-up: scale not given: the % may be the effect or the level left.
For series [5], the system named is Mus musculus. In words: Antihyperlipidemic activity in high-fat fed Mus musculus Swiss albino (mouse) assessed as reduction of serum cholesterol level at 30 mg/kg, po qd for 15 days. The class given is functional. The arrangement: scale not given: the % may be the effect or the level left.
Series [6] has as its system Mus musculus. Description: Antihyperlipidemic activity in high-fat fed Mus musculus Swiss albino (mouse) assessed as reduction of serum triglyceride level at 30 mg/kg, po qd for 15 days. Set-up: scale not given: the % may be the effect or the level left. In kind it is functional.

Regarding `Cc1ccc(CN2C(=O)S/C(=C\c3ccc(Cl)cc3)C2=O)cc1`, the Activity in the series on Mus musculus [1] stood at 6.71 g; in the series with Mus musculus [2], 49%; with Mus musculus [3], 27%; with Mus musculus [4], 29%; in the series on Mus musculus [5] it was 40%; in the series on Mus musculus [6], 42%.

On to `CN(CCOc1ccc(CC2SC(=O)NC2=O)cc1)c1ccccn1` (stereo not given) [ROSIGLITAZONE], for which the Activity in the series on Mus musculus [1] is recorded as 5.28 g; in the series with Mus musculus [2] it was 71%; with Mus musculus [3], 48%; in the series with Mus musculus [4], 44%; with Mus musculus [5], 35%; in the series with Mus musculus [6] it was 43%.

`COc1ccc(/C=C2\SC(=O)N(Cc3ccc(C)cc3)C2=O)c(OC)c1`: the Activity came to 6.06 g in the series with Mus musculus [1]; 57% in the series with Mus musculus [2]; 33% in the series on Mus musculus [3]; 36% with Mus musculus [4]; 36% with Mus musculus [5]; 38% in the series with Mus musculus [6].

With `COc1ccc(/C=C2\SC(=O)N(Cc3ccc(C)cc3)C2=O)cc1`, the Activity was found to be 5.12 g with Mus musculus [1]; 81% in the series with Mus musculus [2]; 65% with Mus musculus [3]; 46% in the series on Mus musculus [4]; 27% with Mus musculus [5]; 44% in the series on Mus musculus [6].

On to `Cc1ccc(CN2C(=O)S/C(=C\c3ccc(N(C)C)cc3)C2=O)cc1`, for which the Activity in the series with Mus musculus [1] was 5.88 g; in the series with Mus musculus [2] it was 73%; with Mus musculus [3], 56%; with Mus musculus [4], 38%; in the series with Mus musculus [5] it was 22%; in the series on Mus musculus [6] it was 23%.
